Experimental data from article PMC6348924, “Detection of Active Caspase-3 in Mouse Models of Stroke and Alzheimer's Disease with a Novel Dual Positron Emission Tomography/Fluorescent Tracer [^68Ga]Ga-TC3-OGDOTA” (Contrast Media & Molecular Imaging, 2019).

Test system: primary cortical neuronal cultures treated with CPT
Test: Ga-TC3-OGDOTA accumulation in CPT toxicity assay
Format: cell-based, mouse
Conditions: 10 μM CPT, 24 h
Procedure: For the in vitro cell culture studies, primary hippocampal and cortical neuronal cultures were prepared from E17 mouse embryos as described previously and cultured in regular neuronal medium (RNM) containing 1x B27, 0.5 mM glutamine, 0.25% glucose in Neurobasal medium (Invitrogen).
Three different conditions known to induce neuronal apoptosis were used to study Ga-TC3-OGDOTA uptake in cell culture: camptothecin (CPT) toxicity, OGD, and AβO toxicity. […] For the CPT toxicity assay, cortical neurons were treated with 0 (control) or 10 μM CPT (Sigma-Aldrich) for 24 h at normal conditions (5% CO2, 37°C). After that the cultures were washed with RNM and incubated with various concentrations of Ga-TC3-OGDOTA for 7 h, followed by either direct live imaging or fixation with 4% paraformaldehyde (PFA) in PBS for staining. […]
For coimaging of Hoechst 33342 (Hoechst), 4′,6′-Diamidino-2-Phenylindole (DAPI), Oregon Green and CC3, fixed cultures were immunostained with anti-CC3 antibody (1 : 500, Cell Signaling, cat#9661) followed by antirabbit secondary antibody and DAPI or Hoechst. […] Cells positive for tracer, CC3, and total number of cells were counted using the ImageJ (NIH, Bethesda, MD) Cell Counter plugin and their ratio was compared between the treatments.

CC[C@@]1(O)C(=O)OCc2c1cc1n(c2=O)Cc2cc3ccccc3nc2-1 [CPT, camptothecin]
effect on number of apoptotic neurons in the culture: elevated
